System: 885724-159-R-J1-PDC complex spheroid viability
Assay: Anticancer human tumor 885724-159-R-J1-PDC patient-derived pancreatic adenocarcinoma cell line growth inhibition [POLQ]
Conditions: for IC50: curve of first compound; for viability, T/C: stronger effect = lower value; active means viability on the fitted dose curve at most 10% of control; inactive means the rest
Protocol: Multicellular complex tumor spheroid response to Polymerase (POL) inhibitors (novobiocin, ART-558, RP6685) in combination with a variety of drugs and investigational agents in selected tumor cell lines
The POL inhibitors (novobiocin, ART-558, and RP6685) were evaluated both individually and in combination with standard of care and investigational anticancer small molecules within a complex spheroid model of solid tumors. . Complex spheroids include a stromal component modeled by human endothelial cells (HUVEC) and fibroblasts modeled by human mesenchymal stem cells (MSCs). The concentration ranges selected for each drug and investigational agent were based upon clinically achievable concentrations if the clinical Cmax of the agent was known.
Compounds. The drugs and investigational agents: novobiocin (NSC847541), ART-558 (NSC835418), RP-6685 (NSC848927), peposertib (NSC802822), ceralasertib (NSC780249), elimusertib (NSC800525), camonsertib (NSC841442), AZD-1390 (NSC803789), olaparib (NSC753686), talazoparib (NSC767125), rucaparib (NSC756644), sotorasib (NSC818433), MRTX-1133 (NSC836407), SN-38 (NSC673596), topotecan (NSC609699), epotoside (NSC141540), doxorubicin (NSC123127), gemcitabine (NSC613327), 5-fluorouracil (NSC19893), paclitaxel (NSC125973), vemurafenib (NSC761431), MSA-2 (NSC828583), SN-011 (NSC837082), adavosertib (NSC754352), prexasertib (NSC758257), carboplatin (NSC241240) and oxaliplatin (NSC266046), were obtained from the National Cancer Institute (NCI) Developmental Therapeutics Program Chemical Repository (21). The FDA-approved anticancer drug set is available from the Developmental Therapeutics Program at https://dtp.cancer.gov/organization/dscb/obtaining/. […] The stock solutions were prepared in dimethyl sulfoxide (DMSO, Sigma-Aldrich, St. Louis, MO, cat. D2650), except for the platinum compounds which were prepared in saline (Quality Biological, Gaithersburg, MD, cat. 114-055-101), at 800-fold the tested concentration and stored at -70 degrees C prior to their use. All drugs and investigational agents were tested over a range starting from a high concentration at or near the clinical Cmax and decreasing in half-log increments. If the clinical Cmax for an agent had not been determined, the highest concentration tested was 10 microM, except for SN-38, which was tested at a high concentration of 1 microM.
Cell Culture. All cells were maintained in an incubator at 37 degrees C and 5% CO2 with 95% humidity. The PDC lines were cultured according to standard operating procedures established by the NCI PDMR (https://pdmr.cancer.gov). Table 3 of the manuscript, lists the cell lines along with the number of the three cell types plated to form the mct-spheroids and media for tumor cell growth. After thawing, all PDC lines, except 997537-175-T-J1-PDC and 415267-285-R-J2-PDC, were cultured in Matrigel-coated flasks prepared with a working solution of 1X Ham's F-12 nutrient mix, without supplementation (Thermo Fisher Scientific, cat. 11765054), 100 U/mL penicillin-streptomycin (Thermo Fisher Scientific, cat. 15140122), and 2.5% Matrigel (Corning Inc., Corning, NY, cat. 354248) for the first three passages. The two PDC lines 997537-175-T-J1-PDC and 415267-285-R-J2-PDC were cultured on uncoated flasks. The 857933-349-R-J2-PDC line was cultured in 6C/Colon 1B media containing advanced DMEM/F-12 (Thermo Fisher Scientific, cat. 12634028), 10 mM HEPES (Thermo Fisher Scientific, cat. 15630080), 1X GlutaMAX supplement (Thermo Fisher Scientific, cat. 35050061), 0.1 mg/mL primocin (InvivoGen, San Diego, CA, cat. ant-pm-2), 10% defined fetal bovine serum, heat inactivated (HyClone Laboratories Inc., Logan, UT, cat. SH30070.03HI), 50% L-WRN conditioned media (ATCC, cat. CRL-3276), 1.25 mM N-Acetyl-L-cysteine (Sigma-Aldrich, cat. A9165), 10 mM nicotinamide (Sigma-Aldrich, cat. N0636), 1X B-27 supplement (Thermo Fisher Scientific, cat. 17504044), 1X N-2 supplement (Thermo Fisher Scientific, cat. […]

[1] = second compound 0.0316 µM, first compound 0.0316 µM
[2] = second compound 0.0316 µM, first compound 0.1 µM
[3] = second compound 0.0316 µM, first compound 0.316 µM
[4] = second compound 0.0316 µM, first compound 1 µM
[5] = second compound 0.0316 µM, first compound 3.16 µM
[6] = second compound 0.0316 µM, first compound 10 µM
[7] = second compound 0.1 µM, first compound 0.0316 µM
[8] = second compound 0.1 µM, first compound 0.1 µM
[9] = second compound 0.1 µM, first compound 0.316 µM
[10] = second compound 0.1 µM, first compound 1 µM
[11] = second compound 0.1 µM, first compound 3.16 µM
[12] = second compound 0.1 µM, first compound 10 µM
[13] = second compound 0.316 µM, first compound 0.0316 µM
[14] = second compound 0.316 µM, first compound 0.1 µM
[15] = second compound 0.316 µM, first compound 0.316 µM
[16] = second compound 0.316 µM, first compound 1 µM
[17] = second compound 0.316 µM, first compound 3.16 µM
[18] = second compound 0.316 µM, first compound 10 µM
[19] = second compound 1 µM, first compound 0.0316 µM
[20] = second compound 1 µM, first compound 0.1 µM
[21] = second compound 1 µM, first compound 0.316 µM
[22] = second compound 1 µM, first compound 1 µM
[23] = second compound 1 µM, first compound 3.16 µM
[24] = second compound 1 µM, first compound 10 µM
[25] = second compound 3.16 µM, first compound 0.0316 µM
[26] = second compound 3.16 µM, first compound 0.1 µM
[27] = second compound 3.16 µM, first compound 0.316 µM
[28] = second compound 3.16 µM, first compound 1 µM
[29] = second compound 3.16 µM, first compound 3.16 µM
[30] = second compound 3.16 µM, first compound 10 µM
[31] = second compound 10 µM, first compound 0.0316 µM
[32] = second compound 10 µM, first compound 0.1 µM
[33] = second compound 10 µM, first compound 0.316 µM
[34] = second compound 10 µM, first compound 1 µM
[35] = second compound 10 µM, first compound 3.16 µM
[36] = second compound 10 µM, first compound 10 µM
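Further: spheroids exposed to compounds for 7 days.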

C=CC(=O)N1CCN(c2nc(=O)n(-c3c(C)ccnc3C(C)C)c3nc(-c4c(O)cccc4F)c(F)cc23)C(C)C1 (stereo unspecified) + Cc1cccc(N(C)C(=O)C2C(O)CCN2c2nc(C)cc(C(F)(F)F)c2C#N)c1
inactive: viability, T/C [1] 105% | viability, T/C [2] 90.7% | viability, T/C [3] 99.5% | viability, T/C [4] 97.8% | viability, T/C [5] 104% | viability, T/C [6] 96.4% | viability, T/C [7] 95.4% | viability, T/C [8] 86.6% | viability, T/C [9] 99.1% | viability, T/C [10] 96.8% | viability, T/C [11] 108% | viability, T/C [12] 88.7% | viability, T/C [13] 98.6% | viability, T/C [14] 95% | viability, T/C [15] 91.3% | viability, T/C [16] 105% | viability, T/C [17] 105% | viability, T/C [18] 88% | viability, T/C [19] 94.8% | viability, T/C [20] 92.1% | viability, T/C [21] 95.3% | viability, T/C [22] 108% | viability, T/C [23] 103% | viability, T/C [24] 92.3% | viability, T/C [25] 98.5% | viability, T/C [26] 94.7% | viability, T/C [27] 98.8% | viability, T/C [28] 99.4% | viability, T/C [29] 110% | viability, T/C [30] 88.7% | viability, T/C [31] 95.4% | viability, T/C [32] 91.8% | viability, T/C [33] 96.1% | viability, T/C [34] 109% | viability, T/C [35] 107% | viability, T/C [36] 93.2%
> 10 µM: IC50 (second compound 0.0316 µM) | IC50 (second compound 0.1 µM) | IC50 (second compound 0.316 µM) | IC50 (second compound 1 µM) | IC50 (second compound 3.16 µM) | IC50 (second compound 10 µM)

CC(=O)O[C@H]1C(=O)[C@@]2(C)[C@H]([C@H](OC(=O)c3ccccc3)[C@]3(O)C[C@H](OC(=O)[C@H](O)[C@@H](NC(=O)c4ccccc4)c4ccccc4)C(C)=C1C3(C)C)[C@]1(OC(C)=O)CO[C@@H]1C[C@@H]2O + Cc1cccc(N(C)C(=O)C2C(O)CCN2c2nc(C)cc(C(F)(F)F)c2C#N)c1
> 3 µM: IC50 (second compound 0.0316 µM) | IC50 (second compound 0.1 µM) | IC50 (second compound 0.316 µM) | IC50 (second compound 1 µM) | IC50 (second compound 3.16 µM) | IC50 (second compound 10 µM)
inactive: viability, T/C (second compound 0.0316 µM, first compound 0.00949 µM) 76.7% | viability, T/C (second compound 0.0316 µM, first compound 0.03 µM) 57.6% | viability, T/C (second compound 0.0316 µM, first compound 0.0949 µM) 58.8% | viability, T/C (second compound 0.0316 µM, first compound 0.3 µM) 62.2% | viability, T/C (second compound 0.0316 µM, first compound 0.949 µM) 70.6% | viability, T/C (second compound 0.0316 µM, first compound 3 µM) 61% | viability, T/C (second compound 0.1 µM, first compound 0.00949 µM) 75.1% | viability, T/C (second compound 0.1 µM, first compound 0.03 µM) 59.4% | viability, T/C (second compound 0.1 µM, first compound 0.0949 µM) 59.8% | viability, T/C (second compound 0.1 µM, first compound 0.3 µM) 70.4% | viability, T/C (second compound 0.1 µM, first compound 0.949 µM) 67.3% | viability, T/C (second compound 0.1 µM, first compound 3 µM) 70.6% | viability, T/C (second compound 0.316 µM, first compound 0.00949 µM) 67.6% | viability, T/C (second compound 0.316 µM, first compound 0.03 µM) 59.6% | viability, T/C (second compound 0.316 µM, first compound 0.0949 µM) 63% | viability, T/C (second compound 0.316 µM, first compound 0.3 µM) 63.6% | viability, T/C (second compound 0.316 µM, first compound 0.949 µM) 75.4% | viability, T/C (second compound 0.316 µM, first compound 3 µM) 69.7% | viability, T/C (second compound 1 µM, first compound 0.00949 µM) 68.2% | viability, T/C (second compound 1 µM, first compound 0.03 µM) 66.3% | viability, T/C (second compound 1 µM, first compound 0.0949 µM) 62.8% | viability, T/C (second compound 1 µM, first compound 0.3 µM) 67.2% | viability, T/C (second compound 1 µM, first compound 0.949 µM) 69.1% | viability, T/C (second compound 1 µM, first compound 3 µM) 68.9% | viability, T/C (second compound 3.16 µM, first compound 0.00949 µM) 62.5% | viability, T/C (second compound 3.16 µM, first compound 0.03 µM) 55.1% | viability, T/C (second compound 3.16 µM, first compound 0.0949 µM) 59.4% | viability, T/C (second compound 3.16 µM, first compound 0.3 µM) 63.8% | viability, T/C (second compound 3.16 µM, first compound 0.949 µM) 67.6% | viability, T/C (second compound 3.16 µM, first compound 3 µM) 64.5% | viability, T/C (second compound 10 µM, first compound 0.00949 µM) 59.1% | viability, T/C (second compound 10 µM, first compound 0.03 µM) 61.1% | viability, T/C (second compound 10 µM, first compound 0.0949 µM) 61% | viability, T/C (second compound 10 µM, first compound 0.3 µM) 66% | viability, T/C (second compound 10 µM, first compound 0.949 µM) 62.7% | viability, T/C (second compound 10 µM, first compound 3 µM) 72%

O=c1[nH]cc(F)c(=O)[nH]1 + Cc1cccc(N(C)C(=O)C2C(O)CCN2c2nc(C)cc(C(F)(F)F)c2C#N)c1
inactive: viability, T/C [1] 98.5% | viability, T/C [2] 101% | viability, T/C [3] 95.8% | viability, T/C [4] 100% | viability, T/C [5] 90.2% | viability, T/C [6] 76.4% | viability, T/C [7] 97.7% | viability, T/C [8] 104% | viability, T/C [9] 98.7% | viability, T/C [10] 106% | viability, T/C [11] 90% | viability, T/C [12] 74.7% | viability, T/C [13] 98.7% | viability, T/C [14] 88.6% | viability, T/C [15] 97.5% | viability, T/C [16] 99% | viability, T/C [17] 87.5% | viability, T/C [18] 71.9% | viability, T/C [19] 111% | viability, T/C [20] 107% | viability, T/C [21] 101% | viability, T/C [22] 98.2% | viability, T/C [23] 92% | viability, T/C [24] 76.7% | viability, T/C [25] 114% | viability, T/C [26] 96.2% | viability, T/C [27] 88% | viability, T/C [28] 100% | viability, T/C [29] 87.3% | viability, T/C [30] 71.7% | viability, T/C [31] 99% | viability, T/C [32] 101% | viability, T/C [33] 89.8% | viability, T/C [34] 89.4% | viability, T/C [35] 92.9% | viability, T/C [36] 78.6%
> 10 µM: IC50 (second compound 0.0316 µM) | IC50 (second compound 0.1 µM) | IC50 (second compound 0.316 µM) | IC50 (second compound 1 µM) | IC50 (second compound 3.16 µM) | IC50 (second compound 10 µM)

— PubChem BioAssay AID1963832 (Molecular Pharmacology Branch, DTP, NCI, 2024)
